Structures can show the parent of a compound that is named as a salt.
Key:
[1] = molecular target: T1, electric eel acetylcholinesterase (eeAChE) (Electrophorus electricus, UniProt O42275); experiment: Inhibition of acetylcholinesterase (modified Ellman's method); type: biochemical; settings: 10^−3 M of the compound, pH 7.4, 37 °C; for inhibition at 1000 µM: read-out: AChE (I%) inhibition rate
T1 construct: purchased J&K Scientific Co. (Beijing, China)
Description: (§1) In the study of cholinesterase inhibitors, the inhibitory effect of the compounds (the NSAIDs and their complexes 1–3) against AChE and BuChE was examined using a modified methodology based on Ellman’s method.
(§2) The ability of the compounds to inhibit AChE and BuChE was evaluated using UV-vis spectroscopy. All the assays were carried out in a 0.1M NaH2PO4/Na2HPO4 buffer at a pH = 7.4. Enzyme solutions were prepared with 2.0 U/mL for AChE and 3.0 U/mL for BuChE. A reaction mixture containing 20 μL of phosphate buffer, 100 μL of DTNB (1-mM), and 40 μL of the enzyme (AChE and BuChE) was incubated with 20 μL of the compounds at various concentrations at 37 °C for 15 min. The reaction was started by the addition of the substrate (20-μL) of ATCI or BTCI solution (1-mM), respectively, and incubation for additional 3 min.
(§3) The enzyme activity was determined by measuring the increase in absorbance at 2-min intervals at 412 nm at 37 °C (ε = 14,150 M^−1cm^−1).
The rate of inhibition of each enzyme by the compounds was calculated according to the following expression:(1) I%=(1−VB/VA)×100 where VB and VA indicate the absorbance measured for ChEs in the presence and absence of inhibitors, respectively. The results are expressed as the average of three repetitions of the tests performed and the standard deviation was less than 3% of the mean. The selectivity index (SI), defined as IC50 BuChE/IC50 AChE, was also calculated. Neostigmine methyl sulfate was used as the appropriate standard.

[2] = molecular target: T2, equine serum butyrylcholinesterase (eqBuChE) (Equus caballus, UniProt P81908); experiment: Inhibition of butyrylcholinesterase (modified Ellman's method); type: biochemical; settings: for inhibition at 1000 µM: read-out: BuChE (I%) inhibition rate; for SI (selectivity index = IBuChE/IAChE): ratio of inhibition rates at 10^−3 M
T2 construct: purchased J&K Scientific Co. (Beijing, China); host or cells: equine serum (by the product's name)
Description: as §1, §2, §3
The rate of inhibition of each enzyme by the compounds was calculated according to the following expression:(1) I%=(1−VB/VA)×100 where VB and VA indicate the absorbance measured for ChEs in the presence and absence of inhibitors, respectively. […] Neostigmine methyl sulfate was used as the appropriate standard.

DPPH radical scavenging = type: biochemical; settings: compound 0.1 mM, ethanol
Description: (§4) The antioxidant activity of complexes 1–3 was evaluated via their ability to scavenge the free radicals DPPH, hydroxyl, and ABTS. Each experiment was performed in triplicate and the standard deviation of absorbance was less than 10% of the mean.
Ethanol was also used as a control solution. The absorbance at 517 nm was recorded at room temperature, two times, after 20 and 60 min, in order to examine the time-dependence of the DPPH-scavenging activity. The DPPH-scavenging activity of the compounds was expressed as the percentage reduction of the absorbance values of the initial DPPH solution (RA%). The compounds NDGA and BHT were used as reference compounds.

[3] = Competition with DMSO for hydroxyl radicals; type: biochemical; settings: compound 0.1 mM; 30 min, 37 °C, pH 7.4
Description: as §4
Competition of the tested compounds with DMSO for hydroxyl radicals: The hydroxyl radicals generated by the Fe^3+/ascorbic acid system were detected according to Nash by the determination of formaldehyde produced from the oxidation of DMSO [155]. The reaction mixture contained EDTA (0.1 mM), Fe^3+ (167 μM), DMSO (33 mM) in phosphate buffer (50 mM, pH 7.4), complexes 1–3 (concentration 0.1 mM), and ascorbic acid (10 mM). After a 30-min incubation at 37 °C, the reaction was stopped with CCl3COOH (17% w/v) and the absorbance at λ = 412 nm was measured. Trolox was used as a reference compound. The competition of the compounds with DMSO for •OH, generated by the Fe^3+/ascorbic acid system, expressed as the percentage of inhibition of formaldehyde production, was used for the evaluation of their hydroxyl radical-scavenging activity (OH%).

[4] = ABTS radical cation scavenging; type: biochemical; settings: compound 0.1 mM; 1 min after mixing
Description: as §4
Assay of radical cation scavenging activity (ABTS^+•): An ABTS cationic radical (ABTS^+•) was produced by reacting an aqueous stock solution (2 mM) of ABTS with 0.17-mM potassium persulfate and allowing the mixture to stand in the dark at room temperature for 12–16 h before use. […] Although the oxidation of ABTS commenced immediately, the absorbance became maximal and stable after 6 h. The radical was stable in this form for more than two days when stored in the dark at room temperature. The ABTS radical solution was diluted with ethanol to an absorbance of 0.70 at 734 nm. After the addition of 10 μL of complexes 1–3 or the standards (0.1 mM) in DMSO, the absorbance was recorded exactly 1 min after initial mixing. The radical scavenging activity of the complexes was expressed as the percentage inhibition of the absorbance of the initial ABTS solution (ABTS%). Trolox was used as a reference compound.

[5] = design: method as in PMID 8216032; settings: cited from earlier work
calf-thymus (CT) DNA = molecular target: calf-thymus (CT) DNA; design: method as in PMID 3427013; settings: cited from earlier work
EB–DNA adduct (CT DNA) = experiment: EB-displacement from EB–DNA adduct (fluorescence emission); type: binding, calf
Description: EB-displacement studies: The competition of complexes 1–3 with EB was investigated by fluorescence emission spectroscopy in order to examine whether the complexes can displace EB from its DNA–EB conjugate. The DNA–EB conjugate was prepared by adding 20-μM EB and 26-μM CT DNA in the buffer solution (150-mM NaCl and 15-mM trisodium citrate at pH 7.0). The possible intercalating effect of the complexes was studied by the addition of a certain amount of a solution of the compound into a solution of the DNA–EB conjugate. The influence of each compound to the DNA–EB complex solution was obtained by recording the changes in the fluorescence emission spectra with the excitation wavelength (λex) at 540 nm.
The Stern–Volmer constant KSV is used to evaluate the quenching efficiency for each compound according to the Stern–Volmer equation (Equation (3)), where Io and I are the emission intensities in the absence and the presence of the quencher, respectively, and [Q] is the concentration of the quencher (i.e., complexes 1–3). The value of KSV is obtained from the Stern–Volmer plots by using the slope of the diagram Io/I versus [Q]. Taking τo = 23 ns as the fluorescence lifetime of the EB–DNA system, the EB–DNA quenching constants (Kq, in M^−1s^−1) of the compounds can be determined according to Equation (4).

[6] = Solubility of the complexes; type: physicochemical
[7] = 10^−3 M of the compound, pH 7.4, 37 °C

T2 sequence (P81908 whole entry): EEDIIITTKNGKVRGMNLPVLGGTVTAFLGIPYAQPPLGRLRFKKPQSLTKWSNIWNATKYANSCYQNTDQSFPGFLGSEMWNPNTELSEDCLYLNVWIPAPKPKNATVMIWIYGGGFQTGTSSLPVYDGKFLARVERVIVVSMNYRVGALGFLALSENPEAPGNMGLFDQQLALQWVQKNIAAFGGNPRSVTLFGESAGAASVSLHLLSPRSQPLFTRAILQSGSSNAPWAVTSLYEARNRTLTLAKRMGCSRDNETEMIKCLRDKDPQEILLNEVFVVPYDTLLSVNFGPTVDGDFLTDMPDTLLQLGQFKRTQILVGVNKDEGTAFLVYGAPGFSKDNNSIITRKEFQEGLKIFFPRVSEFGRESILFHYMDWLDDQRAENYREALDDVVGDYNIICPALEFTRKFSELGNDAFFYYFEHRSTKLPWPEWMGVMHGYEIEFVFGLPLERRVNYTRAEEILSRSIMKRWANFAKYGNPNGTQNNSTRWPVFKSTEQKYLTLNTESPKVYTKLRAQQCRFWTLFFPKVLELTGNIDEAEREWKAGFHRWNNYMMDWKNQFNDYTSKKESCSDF
T1 sequence (O42275 24-633): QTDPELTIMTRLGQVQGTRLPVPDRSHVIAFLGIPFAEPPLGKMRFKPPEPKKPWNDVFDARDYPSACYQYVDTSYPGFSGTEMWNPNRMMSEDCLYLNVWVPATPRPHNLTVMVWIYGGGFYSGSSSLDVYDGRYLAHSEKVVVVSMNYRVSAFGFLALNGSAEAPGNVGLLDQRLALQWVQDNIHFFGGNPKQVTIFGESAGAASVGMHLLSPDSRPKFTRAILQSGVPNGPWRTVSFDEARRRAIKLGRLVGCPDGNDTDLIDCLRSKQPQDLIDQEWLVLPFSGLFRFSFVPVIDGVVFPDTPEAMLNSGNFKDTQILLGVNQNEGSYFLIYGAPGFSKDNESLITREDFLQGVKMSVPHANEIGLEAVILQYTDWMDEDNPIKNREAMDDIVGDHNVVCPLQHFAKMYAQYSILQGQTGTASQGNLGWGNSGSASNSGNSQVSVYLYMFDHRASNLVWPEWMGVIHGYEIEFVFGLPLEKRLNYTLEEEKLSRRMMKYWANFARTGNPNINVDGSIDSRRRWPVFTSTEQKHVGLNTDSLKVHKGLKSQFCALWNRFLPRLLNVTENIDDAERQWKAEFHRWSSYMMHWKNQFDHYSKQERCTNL

For `O=C(O)c1cc(-c2ccc(F)cc2F)ccc1O` [Complex H2difl, Diflunisal], the inhibition at 1000 µM [1] was 17.2 ± 1.46%, the inhibition at 1000 µM [2, 7] was 22.9 ± 1.71% and the “SI (selectivity index = IBuChE/IAChE)” value [2] was 1.32. For the same compound, the “DPPH% (DPPH scavenging ability), 20 min” value (DPPH radical scavenging) was 10.42 ± 0.56%, the “DPPH% (DPPH scavenging ability), 60 min” value (DPPH radical scavenging) was 14.31 ± 0.45% and the “OH% (competition % with DMSO for hydroxyl radical)” value (“OH%” for short) [3] was 86.06 ± 0.38%. For the same compound, the “ABTS% (ABTS radical scavenging activity)” value [4] was 76.58 ± 0.74% and the “half-life period of activity” value [5] was ~ 12 h.

For `Cc1c(C)c2c(c(C)c1O)CCC(C)(C(=O)O)O2` (centres unmarked) [Trolox, 6-hydroxy-2,5,7,8-tetramethylchromane-2-carboxylic acid, reference compound], the “OH%” value [3] was 82.80 ± 0.13% and the “ABTS% (ABTS radical scavenging activity)” value [4] was 91.8 ± 0.17%.

In the case of `CC[n+]1c(-c2ccccc2)c2cc(N)ccc2c2ccc(N)cc21.[Br-]` [EB, 3,8-diamino-5-ethyl-6-phenyl-phenanthridinium bromide], the “Kb DNA-binding constant of the classical intercalator EB” value (calf-thymus (CT) DNA) is listed as 1.23 (±0.07) × 10^5 M^−1.

For `CN(C)C(=O)Oc1cccc([N+](C)(C)C)c1` [Neo, Neostigmine methyl sulfate], the inhibition at 1000 µM [1] was 96.98 ± 0.02%, the inhibition at 1000 µM [2, 7] was 98.4 ± 1.55% and the “SI (selectivity index = IBuChE/IAChE)” value [2] was 1.01.

For `O=C(O)Cc1ccccc1Nc1c(Cl)cccc1Cl` [Nadicl, Sodium diclofenac], the inhibition at 1000 µM [1] was 10.3 ± 1.75%, the inhibition at 1000 µM [2, 7] was 14.1 ± 0.12% and the “SI (selectivity index = IBuChE/IAChE)” value [2] was 1.37. The “DPPH% (DPPH scavenging ability), 20 min” value (DPPH radical scavenging) was 18.26 ± 0.60%, the “DPPH% (DPPH scavenging ability), 60 min” value (DPPH radical scavenging) was 17.43 ± 0.23% and the “OH%” value [3] was 75.46 ± 0.44%. The “ABTS% (ABTS radical scavenging activity)” value [4] was 76.35 ± 0.75%.

For `CC(Cc1ccc(O)c(O)c1)C(C)Cc1ccc(O)c(O)c1` (centres unmarked) [NDGA, nordihydroguaiaretic acid], the “DPPH% (DPPH scavenging ability), 20 min” value (DPPH radical scavenging) was 81.02 ± 0.18% and the “DPPH% (DPPH scavenging ability), 60 min” value (DPPH radical scavenging) was 82.60 ± 0.17%.

With `Cc1cc(C(C)(C)C)c(O)c(C(C)(C)C)c1` [BHT, butylated hydroxytoluene] the “DPPH% (DPPH scavenging ability), 20 min” value (DPPH radical scavenging) was 31.30 ± 0.10% and the “DPPH% (DPPH scavenging ability), 60 min” value (DPPH radical scavenging) was 60.00 ± 0.38%.

With `C[O-].C[O-].O.O=C([O-])c1cc(-c2ccc(F)cc2F)ccc1[O-].O=C([O-])c1cc(-c2ccc(F)cc2F)ccc1[O-].[Fe+3].[Fe+3].c1cnc2c(c1)ccc1cccnc12.c1cnc2c(c1)ccc1cccnc12` [Complex 1, [Fe2(difl)2(MeO)2(phen)2]∙H2O] the “AChE (I%) inhibition rate” value [1] was 1.77 ± 0.82%, the “BuChE (I%) inhibition rate” value [2, 7] was 79.25 ± 2.00% and the “DPPH% (DPPH scavenging ability), 20 min” value (DPPH radical scavenging) was 12.57 ± 0.29%. The “DPPH% (DPPH scavenging ability), 60 min” value (DPPH radical scavenging) was 15.86 ± 0.62%, the “OH%” value [3] was 91.08 ± 1.81% and the “ABTS% (ABTS radical scavenging activity)” value [4] was 85.38 ± 0.92%. For the same compound, the “KSV Stern–Volmer constant (EB–DNA)” value (EB–DNA adduct (CT DNA); EB–DNA fluorescence) was 6.37 (±0.40) × 10^5 M^−1, the “ΔI/Io (%) EB–DNA fluorescence quenching” value (EB–DNA adduct (CT DNA); [EB] = 20 μM, [DNA] = 26 μM, λex 540 nm, λem 592 nm) was 66.8% and the “Kq quenching constant of the EB–DNA fluorescence” value (EB–DNA adduct (CT DNA); τo = 23 ns) was 2.77 (±0.10) × 10^13 M^−1s^−1. For the same compound, the solubility [6] was “Soluble in DMF and DMSO”.
